Data from patent US11505533B2, “Metabolically stable N-acylaminooxadiazoles useful as antibacterial agents” (MICROBIOTIX, INC., priority 2017, dated 2022).
Where two headings read alike, the source gives them in different places.

What was measured:
Adenosine A1 = molecular target: T1, Adenosine A1 (Homo sapiens, UniProt P30542); type: binding; conditions: for % Inhibition: 10 μM
T1 sequence (P30542 1-326): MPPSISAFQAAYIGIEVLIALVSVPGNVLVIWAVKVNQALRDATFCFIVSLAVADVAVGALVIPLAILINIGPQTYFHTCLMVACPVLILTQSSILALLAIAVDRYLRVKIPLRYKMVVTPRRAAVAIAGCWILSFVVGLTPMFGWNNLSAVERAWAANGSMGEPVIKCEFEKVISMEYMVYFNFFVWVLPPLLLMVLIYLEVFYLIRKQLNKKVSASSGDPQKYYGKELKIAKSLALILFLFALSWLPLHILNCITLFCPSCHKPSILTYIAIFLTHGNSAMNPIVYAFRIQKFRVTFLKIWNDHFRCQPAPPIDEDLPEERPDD

CYP450, 2C9 [1] = molecular target: T2, CYP450, 2C9 (Homo sapiens, UniProt P11712); conditions: 10 µM
T2 sequence (P11712 whole entry): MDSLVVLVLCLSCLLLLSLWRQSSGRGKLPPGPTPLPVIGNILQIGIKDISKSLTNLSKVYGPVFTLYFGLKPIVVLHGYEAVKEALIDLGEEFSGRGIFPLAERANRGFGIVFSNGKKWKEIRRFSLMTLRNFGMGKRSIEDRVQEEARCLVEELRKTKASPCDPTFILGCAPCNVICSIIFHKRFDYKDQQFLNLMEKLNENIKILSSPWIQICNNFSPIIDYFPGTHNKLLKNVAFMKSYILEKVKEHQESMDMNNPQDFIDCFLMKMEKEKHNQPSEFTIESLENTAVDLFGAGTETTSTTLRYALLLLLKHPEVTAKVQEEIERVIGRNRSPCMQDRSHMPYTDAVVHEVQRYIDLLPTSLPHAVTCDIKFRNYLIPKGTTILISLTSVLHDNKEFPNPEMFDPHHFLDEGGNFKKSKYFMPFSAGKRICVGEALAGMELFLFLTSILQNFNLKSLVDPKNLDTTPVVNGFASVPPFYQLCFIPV

Nicotinic Acetylcholine = type: binding; conditions: 10 μM; human
[2] = molecular target: Transporter, Norepinephrine (NET) (Homo sapiens, UniProt P23975); type: binding; conditions: for % Inhibition: 10 μM
Chain of Transporter, Norepinephrine (NET) (P23975 whole entry): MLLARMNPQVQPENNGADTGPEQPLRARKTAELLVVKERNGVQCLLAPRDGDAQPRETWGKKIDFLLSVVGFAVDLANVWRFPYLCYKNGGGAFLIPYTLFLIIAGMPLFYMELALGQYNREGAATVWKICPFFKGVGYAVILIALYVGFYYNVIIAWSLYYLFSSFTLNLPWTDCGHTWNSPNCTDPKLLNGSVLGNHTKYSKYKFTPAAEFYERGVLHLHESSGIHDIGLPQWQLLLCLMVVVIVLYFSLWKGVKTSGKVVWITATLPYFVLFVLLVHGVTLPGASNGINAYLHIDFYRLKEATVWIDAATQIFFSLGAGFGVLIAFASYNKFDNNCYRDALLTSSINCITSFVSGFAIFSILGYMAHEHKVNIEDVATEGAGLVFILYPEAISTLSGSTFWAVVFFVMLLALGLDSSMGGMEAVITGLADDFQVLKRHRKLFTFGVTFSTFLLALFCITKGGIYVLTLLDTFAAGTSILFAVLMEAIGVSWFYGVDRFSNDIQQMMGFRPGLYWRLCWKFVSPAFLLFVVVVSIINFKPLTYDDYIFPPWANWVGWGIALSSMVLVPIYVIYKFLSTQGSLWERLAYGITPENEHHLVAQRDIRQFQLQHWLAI

Adrenergic α2A = molecular target: T3, Adrenergic α2A (Homo sapiens, UniProt P08913); type: binding; conditions: for % Inhibition: 10 μM
T3 sequence (P08913 1-465): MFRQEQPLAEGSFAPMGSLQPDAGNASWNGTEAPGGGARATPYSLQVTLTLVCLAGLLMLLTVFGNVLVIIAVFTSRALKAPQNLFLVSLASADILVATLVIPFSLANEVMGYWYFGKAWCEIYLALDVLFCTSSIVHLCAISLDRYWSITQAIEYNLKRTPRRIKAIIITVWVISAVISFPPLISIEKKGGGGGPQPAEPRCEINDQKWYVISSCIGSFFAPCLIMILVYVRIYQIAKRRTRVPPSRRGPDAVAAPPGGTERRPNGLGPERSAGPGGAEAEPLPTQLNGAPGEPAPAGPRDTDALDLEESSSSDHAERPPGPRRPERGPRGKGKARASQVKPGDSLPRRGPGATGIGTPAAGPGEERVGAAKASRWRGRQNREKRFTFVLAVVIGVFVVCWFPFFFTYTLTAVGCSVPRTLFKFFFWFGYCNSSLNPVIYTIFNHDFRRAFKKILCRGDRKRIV

GABAA, Muscimol, Central = type: binding; conditions: 10 μM; rat
Imidazoline I2, Central = type: binding; conditions: 10 μM; rat
Dopamine D1 = Dopamine D1 (Homo sapiens, UniProt P21728); type: binding; conditions: for % Inhibition: 10 μM
Chain of Dopamine D1 (P21728 whole entry): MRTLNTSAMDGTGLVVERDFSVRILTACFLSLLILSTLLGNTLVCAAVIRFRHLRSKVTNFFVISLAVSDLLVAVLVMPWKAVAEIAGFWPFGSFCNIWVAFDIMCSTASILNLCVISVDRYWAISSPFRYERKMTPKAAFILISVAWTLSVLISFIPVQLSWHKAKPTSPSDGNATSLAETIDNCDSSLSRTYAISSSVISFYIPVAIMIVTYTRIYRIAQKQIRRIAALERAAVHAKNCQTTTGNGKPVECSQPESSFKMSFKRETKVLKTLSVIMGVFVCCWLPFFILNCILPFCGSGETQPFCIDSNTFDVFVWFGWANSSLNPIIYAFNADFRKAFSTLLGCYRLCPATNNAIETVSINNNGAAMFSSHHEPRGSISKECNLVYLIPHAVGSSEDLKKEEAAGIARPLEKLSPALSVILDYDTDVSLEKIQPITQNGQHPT

[3] = in vivo
CYP450, 1A2 [4] = molecular target: T4, CYP450, 1A2 (Homo sapiens, UniProt P05177); conditions: 10 µM
T4 sequence (P05177 1-516): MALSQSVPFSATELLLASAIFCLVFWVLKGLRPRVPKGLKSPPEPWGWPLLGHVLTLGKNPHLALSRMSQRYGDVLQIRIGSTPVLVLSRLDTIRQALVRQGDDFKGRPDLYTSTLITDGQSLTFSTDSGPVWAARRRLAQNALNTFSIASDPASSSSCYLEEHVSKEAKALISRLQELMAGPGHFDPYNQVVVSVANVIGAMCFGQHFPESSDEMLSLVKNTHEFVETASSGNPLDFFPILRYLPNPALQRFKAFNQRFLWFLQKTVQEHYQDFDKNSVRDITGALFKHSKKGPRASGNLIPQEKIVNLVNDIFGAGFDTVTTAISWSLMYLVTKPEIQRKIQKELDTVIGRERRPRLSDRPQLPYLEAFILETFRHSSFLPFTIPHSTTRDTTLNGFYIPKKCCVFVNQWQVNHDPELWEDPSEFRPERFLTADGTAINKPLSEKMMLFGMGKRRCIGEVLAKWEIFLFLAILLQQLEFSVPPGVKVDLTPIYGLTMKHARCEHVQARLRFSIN

[5] = system: GABAA, Flunitrazepam, Central; type: binding; conditions: 10 μM; rat
MRSA strain BAA-1717 = assay: Neutropenic murine thigh model; type: in vivo, mice; conditions: 25 mg/kg PO once, 2 h after infection; CFU counts 24 hrs after dosing; n=4
CYP450, 2D6 [6] = molecular target: T5, CYP450, 2D6 (Homo sapiens, UniProt P10635); conditions: 10 µM
T5 sequence (P10635 whole entry): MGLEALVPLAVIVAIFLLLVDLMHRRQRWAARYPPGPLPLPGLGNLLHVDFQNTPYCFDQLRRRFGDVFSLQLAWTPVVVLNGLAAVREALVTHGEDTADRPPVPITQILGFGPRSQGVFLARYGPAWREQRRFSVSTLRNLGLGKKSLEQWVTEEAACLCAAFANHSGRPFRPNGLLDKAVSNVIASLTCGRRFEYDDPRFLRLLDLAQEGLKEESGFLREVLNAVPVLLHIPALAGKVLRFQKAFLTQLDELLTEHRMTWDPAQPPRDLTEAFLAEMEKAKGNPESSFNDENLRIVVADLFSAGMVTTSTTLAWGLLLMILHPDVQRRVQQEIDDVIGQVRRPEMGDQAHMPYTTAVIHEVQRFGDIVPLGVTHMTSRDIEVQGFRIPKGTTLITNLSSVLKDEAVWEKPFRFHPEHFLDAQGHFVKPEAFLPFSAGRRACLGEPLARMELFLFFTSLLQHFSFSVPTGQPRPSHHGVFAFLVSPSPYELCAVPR

CYP2C19 = CYP2C19 (Homo sapiens, UniProt P33261)
CYP1A2 = CYP1A2 (Homo sapiens, UniProt P05177)
hERG potassium channel = hERG potassium channel (Homo sapiens, UniProt Q12809)
CYP3A4 = CYP3A4 (Homo sapiens, UniProt P08684)
Chain of CYP3A4 (P08684 whole entry): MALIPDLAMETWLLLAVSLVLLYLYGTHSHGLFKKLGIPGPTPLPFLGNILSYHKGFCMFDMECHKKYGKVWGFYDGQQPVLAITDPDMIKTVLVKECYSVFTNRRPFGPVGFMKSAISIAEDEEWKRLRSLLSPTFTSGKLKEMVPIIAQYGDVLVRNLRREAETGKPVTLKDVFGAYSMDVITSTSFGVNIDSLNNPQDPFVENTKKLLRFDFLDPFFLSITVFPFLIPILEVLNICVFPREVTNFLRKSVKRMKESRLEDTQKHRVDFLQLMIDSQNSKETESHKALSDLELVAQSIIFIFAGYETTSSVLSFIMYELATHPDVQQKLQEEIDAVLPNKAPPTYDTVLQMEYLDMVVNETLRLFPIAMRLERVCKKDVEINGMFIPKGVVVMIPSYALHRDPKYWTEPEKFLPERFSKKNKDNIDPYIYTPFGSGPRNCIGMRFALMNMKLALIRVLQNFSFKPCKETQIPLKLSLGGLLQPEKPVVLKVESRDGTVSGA

CYP2C9 = CYP2C9 (Homo sapiens, UniProt P11712)
Chain of CYP2C9 (P11712 whole entry): as the sequence (P11712 whole entry) above

CYP450, 2C19 = CYP450, 2C19 (Homo sapiens, UniProt P33261); conditions: 10 μM
Chain of CYP450, 2C19 (P33261 whole entry): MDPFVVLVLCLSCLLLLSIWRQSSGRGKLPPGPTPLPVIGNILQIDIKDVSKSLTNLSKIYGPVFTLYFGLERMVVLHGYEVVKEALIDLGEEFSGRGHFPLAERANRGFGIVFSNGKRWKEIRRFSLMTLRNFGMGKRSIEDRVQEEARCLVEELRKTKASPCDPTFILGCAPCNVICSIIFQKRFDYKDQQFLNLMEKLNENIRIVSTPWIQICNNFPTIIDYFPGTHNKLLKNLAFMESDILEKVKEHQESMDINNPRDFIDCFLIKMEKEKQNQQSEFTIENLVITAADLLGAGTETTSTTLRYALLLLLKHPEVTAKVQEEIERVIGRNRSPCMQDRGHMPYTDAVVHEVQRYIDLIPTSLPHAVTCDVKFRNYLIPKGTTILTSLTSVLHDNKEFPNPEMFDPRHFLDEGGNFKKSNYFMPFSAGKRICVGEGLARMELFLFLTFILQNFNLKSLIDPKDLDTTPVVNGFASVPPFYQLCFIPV

CYP450, 2D6 [7] = molecular target: T5, CYP450, 2D6; conditions: 10 μM
CYP450, 1A2 [8] = molecular target: T4, CYP450, 1A2; conditions: 10 μM
Potassium Channel hERG = Potassium Channel hERG (Homo sapiens, UniProt Q12809); conditions: 10 μM
Chain of Potassium Channel hERG (Q12809 whole entry): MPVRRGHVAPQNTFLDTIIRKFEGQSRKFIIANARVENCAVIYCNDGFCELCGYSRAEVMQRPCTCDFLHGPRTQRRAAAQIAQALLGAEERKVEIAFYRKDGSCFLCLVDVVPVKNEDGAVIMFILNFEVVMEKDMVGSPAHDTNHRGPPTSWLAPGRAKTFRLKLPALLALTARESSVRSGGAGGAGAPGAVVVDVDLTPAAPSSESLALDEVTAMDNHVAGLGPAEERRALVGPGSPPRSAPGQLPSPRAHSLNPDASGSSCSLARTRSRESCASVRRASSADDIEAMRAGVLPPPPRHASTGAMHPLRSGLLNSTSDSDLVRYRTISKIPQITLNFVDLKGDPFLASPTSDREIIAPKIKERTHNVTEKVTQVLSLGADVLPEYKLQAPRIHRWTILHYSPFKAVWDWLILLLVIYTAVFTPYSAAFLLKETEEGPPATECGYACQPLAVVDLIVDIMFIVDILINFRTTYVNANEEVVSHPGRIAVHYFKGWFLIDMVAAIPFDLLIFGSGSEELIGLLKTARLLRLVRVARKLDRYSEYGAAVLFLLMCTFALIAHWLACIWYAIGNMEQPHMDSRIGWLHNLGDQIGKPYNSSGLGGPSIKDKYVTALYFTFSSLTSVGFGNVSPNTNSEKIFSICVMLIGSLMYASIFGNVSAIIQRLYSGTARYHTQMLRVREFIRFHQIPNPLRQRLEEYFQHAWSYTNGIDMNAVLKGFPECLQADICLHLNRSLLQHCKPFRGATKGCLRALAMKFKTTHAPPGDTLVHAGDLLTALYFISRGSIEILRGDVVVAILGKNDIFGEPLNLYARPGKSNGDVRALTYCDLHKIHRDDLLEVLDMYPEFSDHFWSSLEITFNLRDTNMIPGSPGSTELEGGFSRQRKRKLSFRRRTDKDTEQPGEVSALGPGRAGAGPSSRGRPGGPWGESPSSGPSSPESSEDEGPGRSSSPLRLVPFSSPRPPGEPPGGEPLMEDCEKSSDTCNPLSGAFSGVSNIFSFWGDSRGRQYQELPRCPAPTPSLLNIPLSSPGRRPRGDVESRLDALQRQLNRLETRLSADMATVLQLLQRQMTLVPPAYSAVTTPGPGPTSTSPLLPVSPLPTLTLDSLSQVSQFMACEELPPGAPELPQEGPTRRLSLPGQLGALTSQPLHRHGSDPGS

CYP450, 3A4 = CYP450, 3A4 (Homo sapiens, UniProt P08684); conditions: 10 μM
Chain of CYP450, 3A4 (P08684 whole entry): as the sequence (P08684 whole entry) above

CYP450, 2C9 [9] = molecular target: T2, CYP450, 2C9; conditions: 10 μM

| SMILES | % Inhibition (Adenosine A1) | % Inhibition (Nicotinic Acetylcholine) | % Inhibition [2] | % Inhibition (Adrenergic α2A) | % Inhibition (GABAA, Muscimol, Central) | % Inhibition (Imidazoline I2, Central) | % Inhibition (Dopamine D1) | % Inhibition [5] | % Inhibition (CYP450, 2C19) | % Inhibition (CYP450, 2D6 [7]) | % Inhibition (CYP450, 1A2 [8]) | % Inhibition (Potassium Channel hERG) | % Inhibition (CYP450, 3A4) | % Inhibition (CYP450, 2C9 [9]) | other results |
| --- | --- | --- | --- | --- | --- | --- | --- | --- | --- | --- | --- | --- | --- | --- | --- |
| O=C(Nc1nnc(-c2ccc(F)cc2)o1)N1CCc2ccccc2C1 [MBX-4132] | 48% | −8% | 50% | 54% | 1% | 33% | −8% | 13% | – | – | – | – | – | – | % Inhibition (CYP450, 2C9 [1]): 10%; elevated single dose tolerability [3]: no effects distinct from vehicle controls; % Inhibition (CYP450, 1A2 [4]): 9%; drop in CFU/g compared to untreated controls (MRSA strain BAA-1717): > 2 log CFU/g; % Inhibition (CYP450, 2D6 [6]): 10% |
| O=C(Nc1nnc(-c2ccc(F)cc2)o1)c1ccc(Oc2ccccc2)nc1 [MBX-4237] | – | 8% | – | – | −6% | 14% | – | 25% | – | – | – | – | – | – | inhibition at 10 µM (Adenosine A1): 10%; inhibition at 10 µM (CYP2C19): 3%; inhibition at 10 µM [2]: 45%; inhibition at 10 µM (Adrenergic α2A): -8%; inhibition at 10 µM (CYP1A2): 1%; inhibition at 10 µM (hERG potassium channel): 8%; inhibition at 10 µM (Dopamine D1): 7%; inhibition at 10 µM (CYP3A4): 6%; inhibition at 10 µM (CYP2C9): 5% |
| O=C(Nc1nnc(-c2ccc(F)cc2)o1)c1ccc(OC2CCCCC2)cc1 [MBX-4292] | 8% | 1% | 77% | 3% | −4% | 10% | 17% | −1% | 9% | 2% | 5% | 8% | 4% | 10% | – |
| O=C(Nc1nnc(-c2ccc(F)cc2)o1)N1CC=C(C(F)(F)F)CC1 [MBX-4347] | −4% | −4% | 32% | 9% | 4% | −5% | 5% | 22% | 8% | 9% | 2% | 0% | 9% | 4% | – |
